Each structure is given as a SMILES string.

The record followed here is US20170114049A1, “2,5-DISUBSTITUTED CYCLOPENTANE CARBOXYLIC ACIDS FOR THE TREATMENT OF RESPIRATORY TRACT DISEASES” (BAYER PHARMA AKTIENGESELLSCHAFT, priority 2014, published 2017).

Common to all, as to type: biochemical
One assay deals with T1, MMP-2 (Homo sapiens, UniProt P08253).
T1 construct: purchased R&D Systems 902-MP
T1 sequence (P08253 110-660): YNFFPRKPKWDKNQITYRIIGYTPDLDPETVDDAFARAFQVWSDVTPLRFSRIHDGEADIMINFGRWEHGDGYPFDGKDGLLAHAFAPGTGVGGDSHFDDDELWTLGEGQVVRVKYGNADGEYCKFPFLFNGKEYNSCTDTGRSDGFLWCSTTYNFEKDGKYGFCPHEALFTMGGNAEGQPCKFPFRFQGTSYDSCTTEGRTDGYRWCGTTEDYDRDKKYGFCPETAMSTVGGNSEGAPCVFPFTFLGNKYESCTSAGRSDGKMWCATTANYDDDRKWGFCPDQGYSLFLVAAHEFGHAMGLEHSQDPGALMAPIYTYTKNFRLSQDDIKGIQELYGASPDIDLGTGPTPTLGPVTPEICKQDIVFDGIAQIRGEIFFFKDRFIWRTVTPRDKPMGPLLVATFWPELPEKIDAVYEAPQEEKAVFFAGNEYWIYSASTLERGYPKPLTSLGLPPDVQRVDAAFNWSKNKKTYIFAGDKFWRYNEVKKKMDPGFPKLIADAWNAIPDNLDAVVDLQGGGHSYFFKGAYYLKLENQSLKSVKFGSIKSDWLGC
As to the kind of experiment: In vitro MMP-2 inhibition test. The text has this:
(§1) The MMP-mediated amidolytic cleavage of a suitable peptide substrate leads to an increase in fluorescent light here too. The signal intensity of the fluorescent light is directly proportional to the enzyme activity. The active concentration of a test compound at which half the enzyme is inhibited (50% signal intensity of the fluorescent light) is reported as the […].
(§2) Recombinant MMP-2 (from R&D Systems, 902-MP) is chemically activated in accordance with the manufacturer's instructions using APMA. 1 μl of the test compound to be analysed (as a solution in DMSO, suitable concentrations, for example, 1 nM to 30 μM) is pipetted into 24 μl of activated enzyme (final concentration, for example, 2 nM) in reaction buffer (50 mM Tris/HCl pH 7.5, 10 mM CaCl2, 150 mM NaCl, 0.05% Brij®-35) in a white 384-hole microtiter plate (MTP). The enzymatic reaction is started by adding the intramolecularly quenched Mca-Pro-Leu-Gly-Leu-Dpa(Dnp)-Ala-Arg-NH2 substrate (final concentration, for example, 10 μM; R&D Systems, ES-001), so as to result in a total test volume of 50 μl. The course of the MMP-2 reaction is measured by measuring the fluorescence intensity (excitation 320 nm, emission 410 nm) over a suitable period of time (for example over 120 min at a temperature of 32° C.).

The target in the next assay is T2, mouse MMP-3 (Mus musculus, UniProt P28862).
T2 construct: purchased R&D Systems 548-MP
T2 sequence (P28862 100-477): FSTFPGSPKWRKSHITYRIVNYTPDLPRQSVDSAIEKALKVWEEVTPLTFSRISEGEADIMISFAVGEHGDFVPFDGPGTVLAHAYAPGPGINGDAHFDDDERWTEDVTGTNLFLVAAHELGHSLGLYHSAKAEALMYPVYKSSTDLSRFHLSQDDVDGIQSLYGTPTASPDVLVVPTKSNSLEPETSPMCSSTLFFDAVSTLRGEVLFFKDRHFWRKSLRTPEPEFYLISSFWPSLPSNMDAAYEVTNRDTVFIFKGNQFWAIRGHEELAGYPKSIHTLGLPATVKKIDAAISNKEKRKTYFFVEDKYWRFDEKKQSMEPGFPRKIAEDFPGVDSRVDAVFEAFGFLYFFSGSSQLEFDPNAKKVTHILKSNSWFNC
As to the kind of experiment: In vitro mouse MMP-3 inhibition test.

The next assay has as its target T3, MMP-14 (Homo sapiens, UniProt P50281).
T3 construct: purchased R&D Systems 918-MP
The assay is described as follows: In vitro MMP-14 inhibition test.
Excerpt: as §1
Recombinant MMP-14 (from R&D Systems, 918-MP) is enzymatically activated in accordance with the manufacturer's instructions using recombinant furin (from R&D Systems, 1503-SE). 1 μl of the test compound to be analysed (as a solution in DMSO, suitable concentrations e.g. 1 nM to 30 μM) is pipetted into 24 μl of activated enzyme (final concentration e.g. 0.5 nM) in reaction buffer (50 mM Tris/HCl pH 7.5, 10 mM CaCl2, 150 mM NaCl, 0.05% Brij®-35) in a white 384-hole microtiter plate (MTP). The enzymatic reaction is started by adding the intramolecularly quenched Mca-Lys-Pro-Leu-Gly-Leu-Dpa(Dnp)-Ala-Arg-NH2 substrate (final concentration, for example, 5 μM; R&D Systems, ES-010), so as to result in a total test volume of 50 μl. The course of the MMP-14 reaction is measured by measuring the fluorescence intensity (excitation 320 nm, emission 410 nm) over a suitable period of time (for example over 120 min at a temperature of 32° C.).

In assay [1] the target is T4, human macrophage elastase (HME/hMMP-12) (Homo sapiens, UniProt P39900).
T4 construct: 0.5 nM HME; purchased R&D Systems 917-MP
T4 sequence (P39900 106-470): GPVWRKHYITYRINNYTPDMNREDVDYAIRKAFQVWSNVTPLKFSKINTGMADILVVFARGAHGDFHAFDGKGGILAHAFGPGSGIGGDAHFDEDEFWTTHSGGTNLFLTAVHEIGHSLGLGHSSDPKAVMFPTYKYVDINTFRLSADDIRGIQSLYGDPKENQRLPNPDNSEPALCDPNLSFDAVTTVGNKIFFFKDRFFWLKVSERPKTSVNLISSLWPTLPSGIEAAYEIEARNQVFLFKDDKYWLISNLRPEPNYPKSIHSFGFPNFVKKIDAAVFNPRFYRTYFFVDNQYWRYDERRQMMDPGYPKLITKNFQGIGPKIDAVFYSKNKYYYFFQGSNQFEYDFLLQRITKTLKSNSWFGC
The assay is described as follows: In vitro HME inhibition test in the presence of serum albumin (BSA) in the reaction buffer. The following applies: presence of serum albumin (BSA) 2% (w/w). The text has this:
This test corresponds to the standard HME inhibition test described above, except using a modified reaction buffer. This reaction buffer additionally contains bovine serum albumin (BSA, fatty acid-free, A6003, from Sigma-Aldrich) of final concentration 2% (w/w), which corresponds to about half the physiological serum albumin content.

For a further assay, the target named is T5, MMP-13 (Homo sapiens, UniProt P45452).
T5 construct: purchased R&D Systems 511-MP
The assay is described as follows: In vitro MMP-13 inhibition test.
Excerpt: as §1
as §2, with “Recombinant MMP-13” for “Recombinant MMP-2”, “Systems, 511-MP)” for “Systems, 902-MP)”, “example, 0.1” for “example, 2”, “the MMP-13” for “the MMP-2”

The next assay addresses T6, mouse MMP-8 (Mus musculus, UniProt O70138).
T6 construct: purchased R&D Systems 2904-MP
As to the kind of experiment: In vitro mouse MMP-8 inhibition test.

T6 sequence (O70138 101-465): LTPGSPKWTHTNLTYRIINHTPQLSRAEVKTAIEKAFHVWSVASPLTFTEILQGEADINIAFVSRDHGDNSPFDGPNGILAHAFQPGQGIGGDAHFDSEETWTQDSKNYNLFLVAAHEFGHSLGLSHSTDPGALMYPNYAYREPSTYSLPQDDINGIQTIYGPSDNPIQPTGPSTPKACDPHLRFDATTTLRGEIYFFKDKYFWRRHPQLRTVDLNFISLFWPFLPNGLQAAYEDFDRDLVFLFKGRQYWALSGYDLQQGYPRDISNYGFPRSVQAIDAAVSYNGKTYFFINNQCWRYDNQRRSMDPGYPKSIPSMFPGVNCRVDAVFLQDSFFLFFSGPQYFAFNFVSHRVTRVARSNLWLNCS

What is called IC50 is the concentration that gives 50% inhibition. `Cc1ccc2nnn(C[C@@H]3CC[C@H](C(=O)c4ccc(OCCC5CCOCC5)cc4)[C@H]3C(=O)O)c(=O)c2c1` (racemic) [Example 19, (+/−)-(1RS,2SR,5RS)-2-[(6-Methyl-4-oxo-1,2,3-benzotriazin-3(4H)-yl)methyl]-5-{4-[2-(letrahydro-2H-pyran-4-yl)ethoxy]benzoyl}cyclopentanecarboxylic acid]: the IC50 is 0.93 µM against MMP-2; 3.1 µM against mouse MMP-3; 2.7 µM on MMP-14; 0.032 µM in assay [1]; 0.59 µM against MMP-13; 0.15 µM against mouse MMP-8.
